Tested on: SW1271 complex spheroids with HUVEC/MSC, growth, % test/control
Test: Anticancer human tumor SW1271 cell line growth inhibition [AhR];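 further: spheroids exposed to agents for 7 days before readout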
Details: for IC50: curve of first compound; for viability, T/C: stronger effect = lower value
Text: Multicellular complex tumor spheroid response to aryl hydrocarbon receptor antagonists in combination with a variety of drugs and investigational agents in selected tumor cell lines
The current study was undertaken to assess response to aryl hydrocarbon receptor antagonists in combination with standard-of-care drugs and investigational agents in solid tumor complex spheroid models. Complex spheroids include a stromal component modeled by human endothelial cells (HUVEC) and fibroblasts modeled by human mesenchymal stem cells (MSCs). The concentration ranges selected for each drug and investigational agent were based upon clinically achievable concentrations if the clinical Cmax of the agent was known.
Compounds. The drugs and investigational agents: BAY 2416964 (NSC825713), GNF351 (NSC835774), CH-223191 (NSC835775), CPI-455 (NSC825282), aza-TdCyd (NSC777586), decitabine (NSC127716), belinostat (NSC758774), entinostat (NSC756642), pevonedistat (NSC761192), tazemetostat (NSC777109), talazoparib (NSC765396), olaparib (NSC753686), selinexor (NSC780203), nedisertib (M3814, NSC802822), bortezomib (NSC756655), venetoclax (NSC766270), doxorubicin (NSC123127), elimusertib (BAY189344, NSC800525), ceralasertib (AZD6738, NSC777638), TAK-243 (NSC785004), alisertib (NSC759677), etoposide (NSC141540), topotecan (NSC609699), eribulin (NSC707389), gemcitabine (NSC613327), carboplatin (NSC241240), cisplatin (NSC119875), and SN-38 (NSC673596) were obtained from the National Cancer Institute (NCI) Developmental Therapeutics Program Chemical Repository (32). The FDA-approved anticancer drug set is available from the Developmental Therapeutics Program at https://dtp.cancer.gov/organization/dscb/obtaining/available plates.htm. […] The stock solutions were prepared in dimethyl sulfoxide (DMSO, Sigma-Aldrich, St. Louis, MO, cat. D2650), except for the platinum compounds which were prepared in saline (Quality Biological, Gaithersburg, MD, cat. 114-055-101), at 800-fold the tested concentration and stored at -70 degrees C prior to their use. All drugs and investigational agents were tested over a range starting from a high concentration at or near the clinical Cmax and decreasing in half-log increments. If the clinical Cmax for an agent had not been determined, the highest concentration tested was 10 microM (Table 1).
Cell Culture. All cells were maintained in an incubator at 37 degrees C and 5% CO2 with 95% humidity. The PDC lines were cultured according to standard operating procedures established by the NCI PDMR (https://pdmr.cancer.gov). Briefly, all PDCs were thawed and cultured in Matrigel-coated flasks prepared with a working solution of 1X Ham's F-12 nutrient mix, without supplementation (Invitrogen, Waltham, MA, cat. 11765054), 100 U/mL penicillin-streptomycin (Invitrogen, cat. 15140122), and 2.5% Matrigel (Corning Inc., Corning, NY, cat. 354248) for the first three passages. All PDCs were cultured in complete DMEM/F-12 media containing advanced DMEM/F-12 (Invitrogen, cat. 12634028), 4.9% defined fetal bovine serum, heat inactivated (HyClone Laboratories Inc., Logan, UT, cat. SH30070.03HI), 389 ng/mL hydrocortisone (Sigma-Aldrich, cat. H4001), 9.7 ng/mL human EGF recombinant protein (Invitrogen, cat. PHG0313), 23.4 microg/mL adenine (Sigma-Aldrich, cat. A2786), 97.3 U/mL penicillin-streptomycin (Invitrogen, cat. 15140122), 1.9 mM L-glutamine (Invitrogen, cat. 25030081), and 9.7 microM Y-27632 dihydrochloride (Tocris Bioscience, Bristol, United Kingdom, cat. 1254). The PDCs were cultured in complete DMEM/F12 media without 10 microM Y-27632 dihydrochloride for at least two passages prior to the screen. The established cell lines NCI-H1341 and […] were cultured in DMEM/F-12, HEPES (Invitrogen, cat. 11330032), 5% defined fetal bovine serum (HyClone Laboratories Inc., cat. SH30070.03), ITS premix universal culture supplement [insulin (5 microg/mL), transferrin (5 microg/mL), and selenious acid (5 ng/mL)] […]

## CCc1c2c(nc3ccc(O)cc13)-c1cc3c(c(=O)n1C2)COC(=O)[C@]3(O)CC + CC(CO)NC(=O)c1cc(-c2ccc(Cl)cc2)nn(-c2cnn(C)c2)c1=O
Second compound 0.1 µM
  IC50: 29.9 nM
Second compound 0.316 µM
  IC50: > 300 nM
Second compound 1 µM
  IC50: 138 nM
Second compound 3.16 µM
  IC50: > 300 nM
Second compound 10 µM
  IC50: > 300 nM
Second compound 0.1 µM, first compound 0.000949 µM
  viability, T/C: 83%
Second compound 0.1 µM, first compound 0.003 µM
  viability, T/C: 83.5%
Second compound 0.1 µM, first compound 0.00949 µM
  viability, T/C: 66%
Second compound 0.1 µM, first compound 0.03 µM
  viability, T/C: 51%
Second compound 0.1 µM, first compound 0.0949 µM
  viability, T/C: 48.2%
Second compound 0.1 µM, first compound 0.3 µM
  viability, T/C: 47.3%
Second compound 0.316 µM, first compound 0.000949 µM
  viability, T/C: 72.8%
Second compound 0.316 µM, first compound 0.003 µM
  viability, T/C: 79%
Second compound 0.316 µM, first compound 0.00949 µM
  viability, T/C: 67.9%
Second compound 0.316 µM, first compound 0.03 µM
  viability, T/C: 63.2%
Second compound 0.316 µM, first compound 0.0949 µM
  viability, T/C: 56.3%
Second compound 0.316 µM, first compound 0.3 µM
  viability, T/C: 58.8%
Second compound 1 µM, first compound 0.000949 µM
  viability, T/C: 73.4%
Second compound 1 µM, first compound 0.003 µM
  viability, T/C: 85.9%
Second compound 1 µM, first compound 0.00949 µM
  viability, T/C: 56.6%
Second compound 1 µM, first compound 0.03 µM
  viability, T/C: 67%
Second compound 1 µM, first compound 0.0949 µM
  viability, T/C: 54%
Second compound 1 µM, first compound 0.3 µM
  viability, T/C: 42%
Second compound 3.16 µM, first compound 0.000949 µM
  viability, T/C: 74.1%
Second compound 3.16 µM, first compound 0.003 µM
  viability, T/C: 73.8%
Second compound 3.16 µM, first compound 0.00949 µM
  viability, T/C: 58%
Second compound 3.16 µM, first compound 0.03 µM
  viability, T/C: 55.1%
Second compound 3.16 µM, first compound 0.0949 µM
  viability, T/C: 49.1%
Second compound 3.16 µM, first compound 0.3 µM
  viability, T/C: 50.5%
Second compound 10 µM, first compound 0.000949 µM
  viability, T/C: 71.6%
Second compound 10 µM, first compound 0.003 µM
  viability, T/C: 65.8%
Second compound 10 µM, first compound 0.00949 µM
  viability, T/C: 55.5%
Second compound 10 µM, first compound 0.03 µM
  viability, T/C: 58.3%
Second compound 10 µM, first compound 0.0949 µM
  viability, T/C: 45.7%
Second compound 10 µM, first compound 0.3 µM
  viability, T/C: 54.7%

## O=C(c1cc(Cc2n[nH]c(=O)c3ccccc23)ccc1F)N1CCN(C(=O)C2CC2)CC1 + CC(CO)NC(=O)c1cc(-c2ccc(Cl)cc2)nn(-c2cnn(C)c2)c1=O
Second compound 0.1 µM
  IC50: > 10000 nM
Second compound 0.316 µM
  IC50: > 10000 nM
Second compound 1 µM
  IC50: > 10000 nM
Second compound 3.16 µM
  IC50: > 10000 nM
Second compound 10 µM
  IC50: > 10000 nM
Second compound 0.1 µM, first compound 0.0316 µM
  viability, T/C: 84.4%
Second compound 0.1 µM, first compound 0.1 µM
  viability, T/C: 95.4%
Second compound 0.1 µM, first compound 0.316 µM
  viability, T/C: 100%
Second compound 0.1 µM, first compound 1 µM
  viability, T/C: 82.1%
Second compound 0.1 µM, first compound 3.16 µM
  viability, T/C: 88.2%
Second compound 0.1 µM, first compound 10 µM
  viability, T/C: 78.8%
Second compound 0.316 µM, first compound 0.0316 µM
  viability, T/C: 79.8%
Second compound 0.316 µM, first compound 0.1 µM
  viability, T/C: 77.9%
Second compound 0.316 µM, first compound 0.316 µM
  viability, T/C: 75.8%
Second compound 0.316 µM, first compound 1 µM
  viability, T/C: 81.8%
Second compound 0.316 µM, first compound 3.16 µM
  viability, T/C: 77.7%
Second compound 0.316 µM, first compound 10 µM
  viability, T/C: 75.8%
Second compound 1 µM, first compound 0.0316 µM
  viability, T/C: 79.7%
Second compound 1 µM, first compound 0.1 µM
  viability, T/C: 99.7%
Second compound 1 µM, first compound 0.316 µM
  viability, T/C: 83.8%
Second compound 1 µM, first compound 1 µM
  viability, T/C: 67.8%
Second compound 1 µM, first compound 3.16 µM
  viability, T/C: 78%
Second compound 1 µM, first compound 10 µM
  viability, T/C: 103%
Second compound 3.16 µM, first compound 0.0316 µM
  viability, T/C: 76.9%
Second compound 3.16 µM, first compound 0.1 µM
  viability, T/C: 79.3%
Second compound 3.16 µM, first compound 0.316 µM
  viability, T/C: 79.8%
Second compound 3.16 µM, first compound 1 µM
  viability, T/C: 92.2%
Second compound 3.16 µM, first compound 3.16 µM
  viability, T/C: 68.5%
Second compound 3.16 µM, first compound 10 µM
  viability, T/C: 82.5%
Second compound 10 µM, first compound 0.0316 µM
  viability, T/C: 67.8%
Second compound 10 µM, first compound 0.1 µM
  viability, T/C: 67.3%
Second compound 10 µM, first compound 0.316 µM
  viability, T/C: 76.2%
Second compound 10 µM, first compound 1 µM
  viability, T/C: 81.7%
Second compound 10 µM, first compound 3.16 µM
  viability, T/C: 81.2%
Second compound 10 µM, first compound 10 µM
  viability, T/C: 60.6%

Reference: PubChem BioAssay AID1919017 (Molecular Pharmacology Branch, DTP, NCI, 2023)
